Experimental data published in patent publication US20260158152A1, “SPLICING MODULATOR ANTIBODY-DRUG CONJUGATES AND METHODS OF USE” (EISAI R&D MANAGEMENT CO., LTD., priority 2018, published 2026).

Columns and labels:
[1] = tested on: PC3 cells; assay: Cell viability, EPHA2-expressing PC3; assay type: cell-based; conditions: free payload of the ADC
Method: (§1) HCC1954 (American Type Culture Collection (ATCC)) breast ductal carcinoma cells were plated at 2000 cells/well in flat bottom 96-well tissue culture plates (Corning) in a total volume of 90 μL tissue culture medium supplemented with 10% fetal bovine serum (ThermoFisher Scientific). Cells were treated with a 3-fold serial dilution of compound from 200 nM to 0.03 nM. Each concentration was tested in triplicate. At the time of treatment, a plate of untreated cells was evaluated using CellTiter-Glo®2.0 Luminescent Cell Viability Assay according to the manufacturer's recommendations (Promega; #G9241). CellTiter-Glo® 2.0 reagent was added to the medium, incubated, and assayed on an EnVision Multilabel Reader (PerkinElmer). Values represent time zero (TO). […] Percentage growth inhibition was calculated as: [(T144−T0)/(C−T0)]×100 for concentrations for which T144>/=T0 or [(T144−T0)/T0]×100 for concentrations for which T144<T0. The dose response curve plots were generated using Prism 7 (Graphpad) and fit using nonlinear regression analysis and the log (inhibitor) versus response—variable slope (four parameters).
(§2) Anti-CD138 ADCs were tested in the CD138-expressing MOLP8 multiple myeloma cell line. Similarly, anti-EPHA2 ADCs were tested in the EPHA2-expressing PC3 prostate cancer cell line.

[2] = tested on: MOLP8 cells; assay: Cell viability, CD138-expressing MOLP8; assay type: cell-based; conditions: unconjugated payload of the ADC
Method: as §1, §2

[3] = tested on: N87 cells; assay: Cell viability CellTiter-Glo, N87; assay type: cell-based, human; conditions: unconjugated payload of the ADC
Method: as §1
HCC1954 (ATCC), 2000 cells/well), N87 (ATCC, 4000 cells/well), SKBR3 (ATCC, 3000 cells/well), and MCF7 (ATCC, 1500 cells/well) cell lines were used. Cell viability analysis was performed as described in section 2.3.

[4] = Caco-2 permeability of ADC payload; assay type: in vitro ADME; conditions: human, Caco-2; payload, apical to basolateral, 2 hours; read-out: Permeability Mean Caco-2 A-B Perm (10e−6 cm/s)
Method: Integrity of cell monolayer was confirmed by TEER (transepithelial electrical resistance) and Lucifer yellow. Payloads were spiked in duplicate at 10 µM, separately, on both sides of the cell monolayer. Permeability rates from the apical to basolateral (A−B) direction and the basolateral to apical (B−A) direction were determined by sampling aliquots from both chambers immediately after treatment (t=0) and following incubation for 2 hours. Samples were protein precipitated with organic solvent containing internal standard and analyzed by LC-MS/MS (SCIEX; API 5500). The area ratio responses of payload/internal standard over time in both directions were used to generate permeability (cm/sec) values.

[5] = tested on: Ad2.1 pre-mRNA splicing; assay: In vitro splicing (IVS) RT-qPCR, Ad2.1 pre-mRNA in HeLa S3 nuclear extract; assay type: biochemical; conditions: payload of the ADC; read-out: qPCR-IVS-ATS GMean IC50 (nM) Ad2.1
Method: To evaluate payload activity in a cell-free system, an in vitro splicing assay was performed. The payloads were incubated with nuclear extracts and pre-mRNA substrate minigenes.
HeLa nuclear extract preparation: HeLa S3 cell pellets were resuspended in hypotonic buffer (10 mM HEPES PH 7.9, 1.5 mM MgCl2, 10 mM KCl, 0.2 mM PMSF, 0.5 mM DTT) and the suspension was brought up to a total of 5 packed cell volume (PCV). After centrifugation, the supernatant was discarded, and the cells were brought up to 3 PCV with hypotonic buffer and incubated on ice for 10 min. Cells were lysed using a dounce homogenizer and then centrifuged. […]. The nuclei were gently mixed for 30 min before centrifuging. The supernatant (nuclear extract) was then dialyzed into storage buffer (20 mM HEPES pH 7.9, 100 mM KCl, 0.2 mM EDTA, 20% glycerol, 0.2 mM PMSF, 0.5 mM DTT). Protein concentration was determined using NanoDrop 8000 UV-Vis spectrophotometer (ThermoFisher Scientific).
IVS: All Ad2-derived sequences (Pellizzoni et al. (1998) Cell 95 (5): 615-24) were cloned into pcDNA3.1(+) vector (Promega) using 5′ EcoRI and 3′ XbaI restriction sites. The plasmids were linearized using XbaI and used as DNA templates in in vitro transcription reactions. The FtzΔi intron-less plasmid (Luo and Reed (1999) 96 (26): 14937-42) was linearized using EcoRI. […]

[6] = tested on: THP1.1; assay: Payload cell potency and lethality CellTiter-Glo, THP1; assay type: cell-based; conditions: payload of the ADC
Method: Each concentration was tested in triplicate. […] Values represent time zero (TO).

SMILES | Payload Rmin [1] [%] | Payload Rmin (%) [2] [%] | Payload Rmin (%) [3] [%] | Papp A→B at 2 h, 10 µM [4] [×10⁻⁶ cm/s] | IC50 [5] [nM] | Payload cell lethality: CT..-ATS GMean LD50 (nM) THP1.1 [6] [nM]
CC(=O)N1CCC(n2nnc3c(F)cc(/C=C(\C)[C@H]4OC(=O)C[C@H](O)CC[C@H](C)[C@@H](OC(=O)N5CCNCC5)/C=C/[C@@H]4C)cc32)CC1 [D14] | −79.835 | −6.1 | −52.662 | 0.08 |  | 
C/C(=C\c1cc(F)cc(N2CCN(C(=O)Cn3cccn3)CC2)c1)[C@H]1OC(=O)C[C@H](O)CC[C@H](C)[C@@H](OC(=O)N2CCNCC2)/C=C/[C@@H]1C [D16] |  |  |  |  | 18 | 21.48
